Laboratory results published in patent US20240350642A1, “SUSTAINED RELEASE DOSAGE FORMS FOR LOW SOLUBILITY COMPOUNDS AND METHODS FOR PREPARING OF THESE SUSTAINED RELEASE DOSAGE FORMS” (priority 2023, published 2024).
“Also recorded” adds a separate entry of the source.

Tests used:
Format in all cases: physicochemical
[1] = Solubility of Cannabidiol in USP dissolution apparatus before and after adding HP-β-Cyclodextrin (experiment 12)
Experimental: FIGS. 5A and 5B refer to a method to determine the solubility of low soluble API and determination of the solubility enhancing effect of an API: Cyclodextrin complex. Accurately weighted amounts of the low soluble API, higher than its intrinsic solubility in the volume and pH of the aqueous media, is added to a defined volume into a vessel of the standard dissolution test apparatus 1 or 2 as defined in US Pharmacopeia (chapter <711> “Dissolution”) at pH conditions suitable for the API as explained above and at standard temperature conditions at the site of absorption e.g., 37° C. and paddle rotation of 50 rpm, with either water or standard aqueous media at pH 1, pH 2, water or buffer pH 6.8. It is to be assured by visual check that the API is not or not fully dissolved to ensure that the added amount is higher than the intrinsic solubility of the API. The dissolution of the API is checked for between 30 Min. and 3 hours, and the amount dissolved is measured with a suitable assay method like UV or HPLC and plotted against time. […]
An accurately weighted amount of Cannabidiol was dissolved in ethanol resulting in a solution containing 5 mg/ml. […] The amount of dissolved CBD was monitored. […]

[2] = Solubility of the API in aqueous media
Experimental: A different aqueous media may be selected if required for stability reasons of the API; e.g., decompensation of the at pH 6.8 or change of the polymorph of the API, e.g. salt formation of a base under low pH conditions and vis versa base formation of API with a strong acid at higher pH values. Preferably, aqueous conditions are selected to maintain an unchanged API polymorph. The amount dissolved is determined either by measuring the concentration at the defined time points and the amount dissolved is plotted versus time. The amount at each time point is determined by a suitable assay method, e.g., UV for API with sufficient extinction coefficient or HPLC with low extinction coefficient.

[3] = Solubility of Ketoconazole in USP dissolution apparatus before and after adding HP-β-Cyclodextrin (experiment 13)
Experimental: FIGS. 5A and 5B refer to a method to determine the solubility of low soluble API and determination of the solubility enhancing effect of an API: Cyclodextrin complex. Accurately weighted amounts of the low soluble API, higher than its intrinsic solubility in the volume and pH of the aqueous media, is added to a defined volume into a vessel of the standard dissolution test apparatus 1 or 2 as defined in US Pharmacopeia (chapter <711> “Dissolution”) at pH conditions suitable for the API as explained above and at standard temperature conditions at the site of absorption e.g., 37° C. and paddle rotation of 50 rpm, with either water or standard aqueous media at pH 1, pH 2, water or buffer pH 6.8. It is to be assured by visual check that the API is not or not fully dissolved to ensure that the added amount is higher than the intrinsic solubility of the API. The dissolution of the API is checked for between 30 Min. and 3 hours, and the amount dissolved is measured with a suitable assay method like UV or HPLC and plotted against time. After the initial phase at least a 100-time overage of the desired complex forming Cyclodextrin, in a suitable complex forming ratio with the API, is added to the dissolution vessel and the dissolution determination is continued for up to 24 hours until the amount of dissolved API reaches a plateau. […]

| solubility of Ketoconazole after overage of HP-β-Cyclodextrin ([3]; 500 ml aqueous media pH 6.8) | solubility of Ketoconazole before Cyclodextrin addition ([3]; 500 ml aqueous media pH 6.8, added as powder) | solubility in aqueous media (words) ([2]; pH 2) | Structure (SMILES) | solubility of CBD after overage of HP-β-Cyclodextrin ([1]; 500 ml aqueous media pH 2) | solubility of CBD before Cyclodextrin addition ([1]; 500 ml aqueous media pH 2, added as solution in ethanol) | solubility in aqueous media (words) ([2]; any pH or pH not given) | solubility in aqueous media (words) ([2]; any pH or pH not given, listed as Cannabidiol) | solubility in aqueous media (words) ([2]; pH 6.8) |
| --- | --- | --- | --- | --- | --- | --- | --- | --- |
| – | – | – | C=C(C)[C@@H]1CCC(C)=C[C@H]1c1c(O)cc(CCCCC)cc1O [CBD, Cannabidiol] | significantly increased | almost insoluble | very insoluble | insoluble | – |
| significantly increased | visibly insoluble | low soluble | CC(=O)N1CCN(c2ccc(OCC3COC(Cn4ccnc4)(c4ccc(Cl)cc4Cl)O3)cc2)CC1 (centres unmarked) [Ketoconazole] | – | – | – | – | very insoluble; also recorded: less soluble; also recorded: very low soluble |
